Results on 88 compounds are retold here after a melting point compilation (Tetko et al.; mined from patent text by program, amines drawn as free bases though some values may be those of a salt).

Molecules are shown by their SMILES.

As for `CN(C)Cc1cc2nc(C(=O)O)c(=O)[nH]c2cc1[N+](=O)[O-]`, the melting point was above 300 °C.

For `O=C1NC(=O)N2c3ccccc3[C@H]3CCN4CCC[C@H]1[C@H]4[C@H]32` (racemic), the melting point was determined as 235 °C. `Cc1c(CC(=O)O)c2cc(O)ccc2n1C(=O)c1ccccc1` registered a melting point of 186 to 188 °C. `CCc1ccc(NCc2ccc(N(C)C)cc2)cc1` returned a melting point of 64 to 66 °C. Turning to `O=c1[nH]c(=S)nc2n1C(c1ccc(F)cc1)CO2` (stereo not drawn), the melting point lay in the range of 211 to 217 °C. Under `O=C1N=Nc2ccccc21` stands 232 to 233 °C. The compound `Cc1cc(OCC(O)CCCl)ccc1Cl` (stereo not drawn) came in with a melting point of 87 to 89 °C.

Compound `CCc1ccc(Cl)c(S(=O)(=O)NC(=O)c2cn3cc(C(F)(F)F)cc(Cl)c3n2)c1` registered a melting point of 214 to 215 °C.

`COc1ccc(/C=N/Nc2nc(=O)[nH]cc2F)cc1` returned a melting point of 202 to 208 °C. With `CC(C)(C)c1cc(CCC2NC(=O)NC2=O)cc(C(C)(C)C)c1O` (stereo not drawn) the figure was 207 to 208 °C; with `Cc1ccc(-c2ccc(OC3SCC(O)C(O)C3O)cn2)cc1` (stereo not drawn), 191 °C; with `CCCCCCCCCCCCOC(=O)CCC(=O)c1ccc(NCc2ccc3ccc4nc(C)[nH]c(=O)c4c3c2)cc1`, 213 to 214 °C. With `CCC1(CCCCN2CCN(c3ccccn3)CC2)C(=O)Nc2ccc(F)cc21` (stereo not drawn), the melting point was 144 to 147 °C. With `O=C(O)CCc1cn(Cc2ccc3cc(OCc4ccccc4F)ccc3c2)nc1-c1ccccc1`, the melting point fell in the range of 152 to 153 °C. Regarding `CCCc1c(OCCCOc2ccc(C(C)=O)c(OCc3ccccc3)c2CCC)ccc2c1OC(CO)CC2` (stereo not drawn), the melting point lay in the range of 83 to 85 °C. Regarding `CC1=CC(c2cccc(Cl)c2)C2=C(CC(C)(C)CC2=O)N1` (stereo not drawn), the melting point is 183 to 185 °C. Compound `CCCCCCCCC1(C)Cc2ccc(-c3nc4cc(CCCC)ccc4o3)cc2C1=O` (stereo not drawn) displayed a melting point of 93 °C. Under `O=c1cc(CCO)c2cc(F)ccc2n1Cc1cc(Br)c(Br)c(Br)c1` stands 135 to 140 °C; under `NC[C@H]1CNc2cccc(-c3ccccc3Cl)c2O1`, 135 °C; under `N#Cc1cccnc1CC1COc2cc3c(cc2O1)OCC31C(=O)Cc2ccccc21` (stereo not drawn), 230 to 233 °C. For `CCCOc1ccc(-c2scc(-c3ccccc3Cl)c2CC(=O)NC(=N)NCCCO)c(C)c1`, the melting point was in the range of 103 to 106 °C. `CN(C)C1CCc2c(c3ccccc3n2CC(=O)O)C1` (stereo not drawn): the melting point was in the range of 316 to 319 °C.

Regarding `C=CC(CC(O)C(CC1CCCCC1)NC(=O)C(Cc1ncc[nH]1)NC(=O)C(Cc1ccccc1)NC(=O)C(N)COC(C)(C)C)C(C)C` (stereo not drawn), the melting point was determined as 103 °C. As to `Sc1nc2cnc3ccccc3c2s1`, the melting point is 282 to 284 °C. For the compound `CCC(COC)(OC)c1cncc(O)c1` (stereo not drawn), the melting point fell in the range of 87 to 88 °C. `CCOCc1ccc2oc(C(=O)OCC)c(C)c2c1O` registered a melting point of 97 to 98 °C. `CC(C)c1ccc(S(=O)(=O)c2ccccc2)cc1S(=O)(=O)NC1CCN(C(=O)c2ccc(F)cc2)CC1` registered a melting point of 218 to 220 °C. Turning to `CC(=O)Nc1ccc(-c2nc3n(c2-c2ccc(NC(C)=O)cc2)CCS3)cc1`, the melting point fell in the range of 285 to 290 °C. Take `Nc1nc(Cl)c2[nH]c(=O)n(CCCCO)c2n1`: the melting point lay within 222 to 225 °C. With `O=C1C(CCO)Oc2ccc(F)cc2N1Cc1cccc([N+](=O)[O-])c1` (stereo not drawn), the melting point was in the range of 110 to 112 °C. `Cc1cc(C)c(CP(Cc2c(C)cc(C)cc2C)Cc2c(C)cc(C)cc2C)c(C)c1` showed a melting point of 148 to 158 °C. In turn, `Cc1cn(-c2cccc(C3=Nc4ccc(C#Cc5ccc(F)cc5)cc4NC(=O)C3)c2)cn1` yielded a melting point of 210 °C. Turning to `CCOC(=O)c1c(C(F)(F)F)nc(C(F)F)c(C(=O)OC)c1N(C)C1CC1`, the melting point lay in the range of 37 to 40 °C. As to `c1ccc(COc2ccc(C(c3ccc(OCc4ccccc4)cc3)n3cncn3)cc2)cc1`, the melting point lay in the range of 134 to 137 °C. Consider `O=C(Nc1ccc(F)cc1)[C@H]1CCCN(C(=O)c2ccc(F)cc2)C1`, for which the melting point fell in the range of 163 to 164 °C.

Take `CC(C)C(=O)Nc1cccc(-c2ccnc3c(C(=O)c4ccco4)cnn23)c1`: the melting point lay in the range of 189 to 191 °C. Under `COc1ccccc1-c1n[nH]c2c(NCCO)cc(C)nc12` stands 193 to 194 °C. With `FC(F)(F)Oc1ccc(/C=C/c2ccc(CBr)cc2)cc1` the figure was 100 to 102 °C. Under `CC(CC(C)(C)O)=NO` stands 159 to 161 °C; under `CCOC(=O)CC1CN=C(c2cc3cc(OC(F)(F)F)cc(N(C)S(=O)(=O)c4cccs4)c3[nH]2)S1` (stereo not drawn), 93 to 94 °C.

Turning to `COCCn1cc(C=O)c(-c2ccc([N+](=O)[O-])o2)n1`, the melting point was 137 to 138 °C. Under `C=CCOc1ccc(C[C@@H](NC(C)=O)C(=O)O)cc1` stands 75 °C.

For `O=C1C2C3COC2(C3)c2cccnc2N1c1ccccc1` (stereo not drawn), the melting point lay within 198 to 200 °C. In turn, `Cc1c(C)c(O)c([N+](=O)[O-])c(C)c1O` showed a melting point of 105 to 106 °C. `CCCCCCCCCCCCCCC[C@H]1O[C@@H]1CO` registered a melting point of 77 to 78 °C.

The compound `O=C1C(=O)N(Cc2ccc(Br)cc2F)c2c1cccc2C(F)(F)F` registered a melting point of 141 to 143 °C. As for `CC(C)c1c(O)cccc1O`, the melting point lay in the range of 79 to 82 °C. `COc1cc(Cc2cnc(NCCSCc3ncccc3Br)[nH]c2=O)ccn1` displayed a melting point of 70 to 72 °C.

`COC(=O)C1=C(N)CC2CC[C@H]1N2C`: the melting point lay within 95 to 98 °C. Under `c1ccc2c(c1)N=C(N1CCCCC1)c1cscc1N2` stands 157 to 159 °C; under `CCOC(=O)C(Cc1ccc(C(F)(F)F)cc1)C(=O)c1ccc(F)c(F)c1` (stereo not drawn), 48 to 49 °C.

The compound `CC(C)c1oc(-c2ccccc2)nc1CC(=O)O` returned a melting point of 141 to 143 °C. Consider `O=c1c2ccc(Cl)cc2[nH]c2c(=O)n(-c3ccc(Cl)cc3)nc(O)c12`, for which the melting point was above 400 °C. As for `COc1cc(Nc2c(C#N)cnc3cc(Br)ccc23)c(Cl)cc1Cl`, the melting point was in the range of 192 to 193 °C. The compound `Cc1ccc2c(c1)c(CCC(=O)O)c1n2C(=O)CCC1` had a melting point of 152 to 153 °C. `CCOC(=O)c1cc([N+](=O)[O-])cn1Cc1ccccc1` had a melting point of 73 °C.

Compound `O=C(N1CC(CCl)c2c1ccc1ccccc21)C(F)(F)F` (stereo not drawn) returned a melting point of 185 °C. Regarding `COc1ccc2c(c1)CC(=O)N2Nc1ccncc1`, the melting point was in the range of 169 to 171 °C.

With `Cc1cc(C)c(C(=O)P2(=O)Oc3ccccc3-c3ccccc32)c(C)c1` (stereo not drawn), the melting point is 109 °C. `CC(C)(C)OC(=O)N(CC=CCl)c1cc(OCc2ccccc2)c2ncccc2c1I` returned a melting point of 115 to 135 °C. Compound `CC12CCCc3c1n(c1ccccc31)C(=O)CC2` (stereo not drawn) yielded a melting point of 93 to 95 °C. Consider `CN(C)CCc1[nH]c2ccccc2c1CC#N`, for which the melting point lay within 122 to 127 °C. `CN1CCOc2cc(-c3cnc4[nH]cc(C(=O)C5(C)CCCCC5)c4n3)ccc21` came in with a melting point of 243 to 244 °C.

In turn, `Cc1ccc2nc(NC3=NCCN3)[nH]c2c1C` gave a melting point of 199 to 204 °C. For `O=C(Nc1cccc(-c2cc(-c3c(Cl)cccc3Cl)no2)c1)C(Cl)Cl`, the melting point is 167 °C. Under `CC(C)(C)NC(=O)[C@@H]1CCCN1C(=O)[C@@H](O)[C@H](Cc1ccccc1)N(Cc1ccccc1)Cc1ccccc1` stands 122 to 123 °C; under `C(#Cc1ccccc1)C1=CCN(Cc2c[nH]c3ncccc23)CC1`, 198 to 200 °C. `CCOCc1nc2c(N)nc3ccccc3c2n1CCC(=O)N1CCOCC1` displayed a melting point of 187 to 189 °C.

For `CS(=O)CC(=O)Nc1c(C(=O)c2ccccc2)[nH]c2cc(Cl)ccc12` (stereo not drawn), the melting point lay within 191 to 192 °C.

In turn, `O=C(NNC(=O)c1cccc([N+](=O)[O-])c1)c1cccc([N+](=O)[O-])c1` gave a melting point of 245 °C.

Compound `O=C(c1cc(-c2ccc(Cl)cc2)c(N2CCOCC2)s1)c1cc(-c2ccc(Cl)cc2)c(N2CCOCC2)s1` returned a melting point of 135 to 136 °C. The compound `COc1ccc(CC#N)cc1S(N)(=O)=O` gave a melting point of 173 to 177 °C. As for `CCCCCCCCCCCCCCCCc1ccc(S(=O)(=O)Nc2nncs2)cc1`, the melting point lay in the range of 118 to 119 °C. For the compound `COc1ccc(-c2cc(=O)n(Cc3cccnc3)nc2-c2ccc(OC)cc2)cc1`, the melting point fell in the range of 167 to 168 °C. `COc1ccc(-c2ccnc3c(C(=O)c4cccs4)cnn23)cc1NC(=O)OC(C)C`: the melting point fell in the range of 193 to 195 °C. For `Cc1cc(C)cc(Sc2c(CN3CCOCC3)c(C)[nH]c(=O)c2I)c1`, the melting point was 230 °C. With `N#Cc1cc(-c2c(C(N)=O)ccn2-c2ccc(F)cc2)ccc1OCC(F)(F)F` the figure was 227 to 228 °C; with `C#CCc1c(F)c(F)c(CO)c(F)c1F`, 51 to 52 °C. `Nc1nc2c([nH]c(=O)n2Cc2cccs2)c(=O)[nH]1`: the melting point is above 300 °C.

For the compound `COC(=O)C(C)=C(C(=O)OC)C1C=CC=CC1(C)C(C(=O)OC)=C(C)C(=O)OC` (stereo not drawn), the melting point was determined as 90 °C. With `CCCCCCCCCCCC(=O)OC1CC(c2ccccc2)NC(c2ccccc2)C1` (stereo not drawn), the melting point was 40 to 42 °C. For the compound `CNC(SC)=C(C#N)C#N`, the melting point lay within 119 to 120 °C. `COc1cc(OC)nc(C2(O)OC(=O)c3c(-c4ccc(Cl)cc4)ccnc32)n1` (stereo not drawn) registered a melting point of 228 to 231 °C.

`COC(=O)C1=CC=CC(C(=O)OC)(N(c2ccccc2)c2ccc(-c3ccc(N(c4ccccc4)C4(C(=O)OC)C=CC=C(C(=O)OC)C4)cc3)cc2)C1` (stereo not drawn) gave a melting point of 136 to 141 °C. Under `CCOC(=O)C1=CNC2=C(C(=O)CCC2)C1c1nccs1` (stereo not drawn) stands 239 to 240 °C.

As to `COc1cc(OC)cc(S(=O)(=O)c2ccc(N)c(C)c2)c1`, the melting point is 121 to 123 °C.

For the compound `C[C@H](NC(=O)OCC1c2ccccc2-c2ccccc21)C(=O)N1[C@H](C)C(=O)OC[C@@H]1c1ccccc1`, the melting point was in the range of 87 to 88 °C.

In turn, `CC(C)(C)OC(=O)N[C@@H](Cc1ccc(O)cc1)C(=O)N[C@H](Cc1ccccc1)C(=O)NCC(=O)O` gave a melting point of 105 to 110 °C.
